Values quoted from earlier work in patent publication US8865644B2, “Rapamycin formulation using recombinant high-density lipoprotein including apolipoprotein A-I and a mutant thereof” (Industry-Academic Cooperation Foundation, Yeungnam …, priority 2010, dated 2014).

## CO[C@H]1C[C@@H]2CC[C@@H](C)[C@@](O)(O2)C(=O)C(=O)N2CCCC[C@H]2C(=O)O[C@H]([C@H](C)C[C@@H]2CC[C@@H](O)[C@H](OC)C2)CC(=O)[C@H](C)/C=C(\C)[C@@H](O)[C@@H](OC)C(=O)[C@H](C)C[C@H](C)/C=C/C=C/C=C/1C [rapamycin]
  solubility in water, aliphatic hydrocarbon and diethylether: hardly dissolved
